Experimental data: US9443060B2, “Method and system to provide personalized pharmaceutical compositions and dosages” (Volant Holdings GMBH, priority 2009, dated 2016)
“Also recorded” adds a separate entry of the source.

Experiments:
[1] = test system: peripheral glucose uptake (PGU); test: Glucose supply and insulin demand model: effect on peripheral glucose uptake; format: in vivo, human
Description: (§1) Therapeutic targets of the glucose supply (CE, 1+2; HGU, 3; GNG, 4; IR, 5) and insulin demand (PGU, 6; PIE, 7) model are presented in FIG. 1. To identify quantitative differences between antidiabetic agents on CE, HGU, GNG, IR, PGU, and PIE, multidatabase searches (Cochrane Central Register of Controlled Trials and Cochrane Register of Systematic Reviews, Embase, OVID Healthstar, OVID Journals, and PubMed) were conducted cross-referencing title and keywords for all selected antidiabetic therapies and their respective targets.
(§2) Alpha-glucosidase, biguanide, and thiazolidinedione (TZD) studies with long-term, pre-post design at maximal therapeutic doses were identified to simulate chronic administration. To maintain consistency with cardiovascular trials and accommodate known influences of hyperglycemia and hyperinsulinemia on the respective targets,^13-16 studies including patients with HbA1c in the range of 6-8% and body mass index (BMI)≧30 kg/m^2 were preferentially selected. In the event multiple studies were available to identify the effect of an agent on a therapeutic target, the mean percent change was used. Conversely, if there was evidence that an agent would elicit a response on a given target but no mathematical representation of the difference was provided, conservative estimates consistent with the scale of other agents and the degree of glucose regulation were instituted to best represent the expected effect. Individual agents were then characterized for the 24 h percent change from baseline for CE, HGU, GNG, IR, PGU, and PIE. Carbohydrate exposure was determined as the combined effect of caloric intake and intestinal carbohydrate absorption. Hepatic glucose uptake was defined as the reported value obtained immediately following oral glucose loading. Because GNG is known to be enhanced in the fasting state and persistent throughout the prandial phase,^17,18 effect was determined during the fasting state and considered equivalent throughout the prandial phase. For studies evaluating fasting glucose and insulin concentrations, an index of IR was determined by homeostasis model assessment of insulin resistance (HOM-AIR) using the following formula: Insulin (mU/liter)×Glucose (mmol)/22.5.^19 To account for known differences in secretory and uptake dynamics during the fasting and prandial phases, studies identifying the impact of therapies during the fasting state (or simulated hyperinsulinemic euglycemic clamp) and prandial phase (or oral glucose load insulin clamp) were specifically identified for changes in PGU (glucose infusion rate) and PIE (insulin concentrations) according to Equation (1): […]
(§3) For sulfonylurea and insulin-based therapies, insulin concentration time profiles were obtained and superimposed on the baseline 24 h insulin concentration time profile of T2D patients (FIG. 2) to calculate the increase in PIE (trapezoidal rule).^20 Calculated increases in incremental and cumulative insulin exposure were correlated to known insulin dose-response effects on HGU, GNG, and PGU (FIG. 3),^18,21 according to the equation y=mx+b. Twenty-four-hour increases in HGU, PGU, and PIE and decreases in GNG were compared to baseline values and percent change calculated.
(§4) With alpha-glucosidase, biguanide, TZD, secretagogue, and insulin therapies characterized for their respective impacts on CE, HGU, GNG, IR, PIE, and PGU, identification of their effect on the glucose supply (decrease in CE, increase in HGU, decrease in GNG, decrease in IR) and insulin demand (increase in PIE, increase in PGU) dynamic was assessed according to Equation (2), which provides the SD ratio according to the invention: […]

[2] = test system: hepatic glucose uptake (HGU); test: Glucose supply and insulin demand model: effect on hepatic glucose uptake; format: in vivo, human
Description: as §1, §2, §3, §4

[3] = test system: metabolic syndrome; test: FS index / neural net model of cardiovascular risk in metabolic syndrome patient populations; format: in vivo, human
Description: The FS index of MS comprises the following parameters: Fasting Blood Glucose, Fasting Insulin, HBA1c, BMI, AST, Triglycerides, Glucose Supply-Demand (S/D) index, and in certain cases, Proinsulin. Each parameter was mathematically arranged to increase as MS worsened, and weighted approximately equally in the prediction of MS progression and risk for CV events. […] FS index values were calculated from serial laboratory and clinical data over timeframes ranging between 2 and 10 years.
Neural Net Models and Data Display Methods. […] Unless otherwise stated, standard deviations (z-score) vs. time are presented in the individual and mean population graphics.
For purposes of analysis, clinical and laboratory parameters were converted into modified z-scores as follows: • A mean normal value (described as “mean” in the following) was selected based on review of literature and various published laboratory compendia. The Standard Deviation (SD) of each parameter was set to one half of the normal range. The modified z-score is calculated as follows: z=(Patient value−“mean”)/SD • On the graphs, the z-score is reported as the number of SD.
The FS index considered the following: Fasting Blood Glucose, Fasting Insulin, HBA1c, BMI, AST, Triglycerides, Glucose Supply-Demand (S/D) index, and in some cases Proinsulin. […] Each of these parameters was mathematically arranged to increase as Metabolic Syndrome worsened, and weighted approximately equally in the prediction of Metabolic Syndrome progression and risk for CV events.
The FS index was then applied to well-studied patient populations using a neural net model.
[formula] Where FBG is Fasting Blood Glucose in mg/dl and normal value is 100 mg/dl TG is Triglycerides in mg/dl normal value is <150 HBA1c is hemoglobin A1c in %, normal value is <6% BMI is body mass index as kg/m2 where a normal value is 20 and obese begins above 25 AST is Aspartate Transferase also called SGOT in IU/liter and a normal value is 5-50 FB insulin is fasting Blood insulin concentration in nmol/liter, a normal value is 4.0

[4] = test system: carbohydrate exposure (CE); test: Glucose supply and insulin demand model: effect on carbohydrate exposure; format: in vivo, human; set-up: scale not given here; conditions: Metformin 2000 mg, Glyburide 10 mg, Pioglitazone 45 mg, Insulin Glargine 0.5 U/kg daily; pH encapsulated glucose 3.0 grams/day
Description: as §1, §2, §3, §4

[5] = test system: hepatic glucose uptake (HGU); conditions: Iozzo; metformin 2000 mg daily, rosiglitazone 8 mg daily; 26 weeks; PET [18F]FDG, insulin clamp; cited from earlier work
[6] = test system: peripheral glucose uptake (PGU); conditions: cited from earlier work
[7] = test system: brush border vesicles isolated from rabbit intestine; conditions: 5 mM metformin; cited from earlier work
[8] = test system: intestinal carbohydrate absorption; conditions: Jackson; metformin, 75 g oral glucose load with labeled glucose, 3 h; cited from earlier work
[9] = test system: hepatic gluconeogenesis (GNG); test: Glucose supply and insulin demand model: effect on hepatic gluconeogenesis; format: in vivo, human
Description: as §1, §2, §3, §4

[10] = Metformin 2000 mg, Glyburide 10 mg, Pioglitazone 45 mg, Insulin Glargine 0.5 U/kg daily, pH encapsulated glucose 3.0 grams/day

## CN(C)C(=N)N=C(N)N [Metformin]
[1]; [10]
  Score PGU: 0.14
[1]; adjustment factor = increase in peripheral glucose uptake at the therapeutic dose of Table 1, T2D
  PGU: 0.14
[2]; [10]
  Score HGU: 0.40
[2]; adjustment factor = increase in hepatic glucose uptake at the therapeutic dose of Table 1, T2D
  HGU uptake: 0.40
[3]; normal 20-50, 61 T2D on metformin, 100 RYGB, 18 Brake, 33 exenatide, 12 sitagliptin patients
  FS index response to treatment: Their FS index rises; also recorded: flat or slowly rising
[3]; same patient populations as FS index
  other parameters of metabolic syndrome (BMI/weight, HBSD, lipids, NAFLD, blood pressure, insulin): their HBSD rises, they gain weight
[4]
  Score CE: 0.15
[5]
  increase in HGU, placebo-subtracted value: +0.008±0.004 μmol/kg^−1/min^−1
[6]; Inzucchi, metformin 2000 mg daily, 12 weeks, euglycemic hyperinsulinemic clamp at 100 mg/dl
  increase in glucose infusion rate: 13%
[6]; Inzucchi, metformin 2000 mg daily, 12 weeks, euglycemic hyperinsulinemic clamp, before 240
  glucose infusion rate: 272 mg/m^−2/min^−1
[6]; Stumvoll, metformin, before 2.8±0.2
  rate of plasma glucose turnover: 2.0±0.2 mg/kg^−1/min^−1
[6]; Stumvoll, metformin
  systemic glucose disposal: did not change
[6]; Tiikkainen, metformin 2000 mg daily, 16 weeks, clamp at 144 mg/dl, before 0.09±0.01, unchanged
  glucose rate of disappearance: 0.10±0.01 mg/kg^−1/min^−1
[7]
  glucose uptake: nominal decrease in glucose uptake
[8]
  absorption of glucose: slightly delayed, but ultimately unaltered
[9]; [10]
  Score HGI: 0.35
[9]; adjustment factor = decrease in hepatic gluconeogenesis at the therapeutic dose of Table 1, T2D
  GNG inhibition: 0.35
